The values below come from ChEMBL document CHEMBL1201862, “PubChem BioAssay data set” (2004).

The source made the active and inactive calls.

The target in experiment [1] is Heat shock protein HSP 90-alpha (Homo sapiens, UniProt P07900). The experiment is classed as functional, organism-based.
The nature of experiment [2]: HEK-293T viability loss after treatment – luminescence, T-cell screen hits, cytotoxicity control for TCR NF-kB inhibitor project, dose response (AID 489026).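 Also: cells exposed to compound about 14 hours before the viability readout.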 The experiment is classed as functional, cell-based.
Experiment [3] addresses T1, Serine/threonine-protein phosphatase (Candida dubliniensis (strain CD36 / CBS 7987 / NCPF 3949 / NRRLY-17841) (Yeast), UniProt B9W6M3).
T1 sequence (B9W6M3 whole entry): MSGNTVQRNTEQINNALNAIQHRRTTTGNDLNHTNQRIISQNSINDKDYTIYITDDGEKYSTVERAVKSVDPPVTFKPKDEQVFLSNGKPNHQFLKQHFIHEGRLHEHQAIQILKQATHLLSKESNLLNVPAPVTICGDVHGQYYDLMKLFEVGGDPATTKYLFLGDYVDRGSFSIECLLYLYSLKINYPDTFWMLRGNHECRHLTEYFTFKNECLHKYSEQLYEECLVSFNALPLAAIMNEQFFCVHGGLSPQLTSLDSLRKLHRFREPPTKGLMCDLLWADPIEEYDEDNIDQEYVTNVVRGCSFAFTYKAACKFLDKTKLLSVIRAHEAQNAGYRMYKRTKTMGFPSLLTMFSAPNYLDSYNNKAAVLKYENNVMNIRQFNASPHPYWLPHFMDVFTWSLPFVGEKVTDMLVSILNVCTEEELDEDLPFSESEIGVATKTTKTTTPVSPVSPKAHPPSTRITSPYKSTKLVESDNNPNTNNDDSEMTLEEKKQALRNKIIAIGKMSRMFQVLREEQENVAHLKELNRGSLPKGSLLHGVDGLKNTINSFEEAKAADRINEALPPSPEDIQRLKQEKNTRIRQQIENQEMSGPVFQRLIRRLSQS
The experiment in a line: blockers of CaCl2-induced CDRE-lacZ signaling – S. cerevisiae, luminescence, secondary, dose response (AID 2388).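 Also: yeast reporter cells carrying a calcineurin-responsive lacZ construct stimulated with calcium chloride; luminescent beta-galactosidase reporter signal in whole cells rather than isolated phosphatase activity; potency for inhibition where a drop in reporter signal means calcineurin blockade.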 It is filed as functional, cell-based.

Experiment [4] deals with Exodeoxyribonuclease V (Escherichia coli (strain K12), UniProt P04993+P07648+P08394). Kind of experiment: RecBCD inhibition via phage-restricted bacterial growth – absorbance, V66 E. coli, mutant T4 phage, counter-screen for AddAB inhibitor project, dose response (AID 492957). The experiment is classed as functional, cell-based, Escherichia coli str. K-12 substr. MG1655. For orientation: Counterscreens check selectivity or assay interference.
Exodeoxyribonuclease V, sequence (P04993 whole entry): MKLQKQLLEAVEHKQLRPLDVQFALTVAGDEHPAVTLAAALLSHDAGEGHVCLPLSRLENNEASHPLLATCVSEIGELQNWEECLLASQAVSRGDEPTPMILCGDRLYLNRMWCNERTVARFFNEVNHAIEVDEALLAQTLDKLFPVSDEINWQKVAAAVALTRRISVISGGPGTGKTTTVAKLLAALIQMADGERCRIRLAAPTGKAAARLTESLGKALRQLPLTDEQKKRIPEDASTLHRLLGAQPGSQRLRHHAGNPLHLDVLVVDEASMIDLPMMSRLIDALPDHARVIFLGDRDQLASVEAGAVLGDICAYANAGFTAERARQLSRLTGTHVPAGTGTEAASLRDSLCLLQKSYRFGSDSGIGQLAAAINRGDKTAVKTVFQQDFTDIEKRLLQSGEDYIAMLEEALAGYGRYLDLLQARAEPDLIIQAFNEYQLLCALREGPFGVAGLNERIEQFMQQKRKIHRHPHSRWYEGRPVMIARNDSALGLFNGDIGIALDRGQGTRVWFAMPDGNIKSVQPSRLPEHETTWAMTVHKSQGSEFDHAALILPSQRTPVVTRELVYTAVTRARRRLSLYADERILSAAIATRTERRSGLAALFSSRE
Exodeoxyribonuclease V, sequence (P07648 whole entry): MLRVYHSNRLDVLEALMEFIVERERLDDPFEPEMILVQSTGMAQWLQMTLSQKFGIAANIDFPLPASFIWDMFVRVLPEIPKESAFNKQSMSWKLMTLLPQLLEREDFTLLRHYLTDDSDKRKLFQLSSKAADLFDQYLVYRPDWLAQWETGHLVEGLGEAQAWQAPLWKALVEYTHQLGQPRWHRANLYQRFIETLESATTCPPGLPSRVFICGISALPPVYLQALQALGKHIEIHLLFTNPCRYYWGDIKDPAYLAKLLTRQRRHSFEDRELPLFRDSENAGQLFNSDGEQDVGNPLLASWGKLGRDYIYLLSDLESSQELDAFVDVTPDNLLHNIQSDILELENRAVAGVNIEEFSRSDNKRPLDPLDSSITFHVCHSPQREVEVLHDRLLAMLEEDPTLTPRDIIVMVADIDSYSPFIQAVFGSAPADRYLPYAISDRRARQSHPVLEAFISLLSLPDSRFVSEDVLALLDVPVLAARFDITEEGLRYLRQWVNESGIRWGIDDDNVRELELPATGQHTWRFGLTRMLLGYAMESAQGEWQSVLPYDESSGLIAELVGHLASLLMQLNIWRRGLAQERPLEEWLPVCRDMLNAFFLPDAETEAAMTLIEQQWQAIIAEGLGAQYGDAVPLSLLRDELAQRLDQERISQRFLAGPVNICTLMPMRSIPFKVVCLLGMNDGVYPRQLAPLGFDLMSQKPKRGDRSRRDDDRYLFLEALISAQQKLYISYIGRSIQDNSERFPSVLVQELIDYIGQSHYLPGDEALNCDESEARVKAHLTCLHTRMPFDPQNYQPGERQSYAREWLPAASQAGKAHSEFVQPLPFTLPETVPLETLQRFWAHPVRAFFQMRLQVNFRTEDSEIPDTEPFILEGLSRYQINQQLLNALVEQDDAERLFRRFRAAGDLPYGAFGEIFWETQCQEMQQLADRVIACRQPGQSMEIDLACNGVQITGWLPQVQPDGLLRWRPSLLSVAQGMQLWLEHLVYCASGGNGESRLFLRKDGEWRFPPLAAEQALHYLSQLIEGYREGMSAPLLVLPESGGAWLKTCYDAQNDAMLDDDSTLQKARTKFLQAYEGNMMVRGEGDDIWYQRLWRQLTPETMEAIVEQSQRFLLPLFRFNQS
Exodeoxyribonuclease V, sequence (P08394 whole entry): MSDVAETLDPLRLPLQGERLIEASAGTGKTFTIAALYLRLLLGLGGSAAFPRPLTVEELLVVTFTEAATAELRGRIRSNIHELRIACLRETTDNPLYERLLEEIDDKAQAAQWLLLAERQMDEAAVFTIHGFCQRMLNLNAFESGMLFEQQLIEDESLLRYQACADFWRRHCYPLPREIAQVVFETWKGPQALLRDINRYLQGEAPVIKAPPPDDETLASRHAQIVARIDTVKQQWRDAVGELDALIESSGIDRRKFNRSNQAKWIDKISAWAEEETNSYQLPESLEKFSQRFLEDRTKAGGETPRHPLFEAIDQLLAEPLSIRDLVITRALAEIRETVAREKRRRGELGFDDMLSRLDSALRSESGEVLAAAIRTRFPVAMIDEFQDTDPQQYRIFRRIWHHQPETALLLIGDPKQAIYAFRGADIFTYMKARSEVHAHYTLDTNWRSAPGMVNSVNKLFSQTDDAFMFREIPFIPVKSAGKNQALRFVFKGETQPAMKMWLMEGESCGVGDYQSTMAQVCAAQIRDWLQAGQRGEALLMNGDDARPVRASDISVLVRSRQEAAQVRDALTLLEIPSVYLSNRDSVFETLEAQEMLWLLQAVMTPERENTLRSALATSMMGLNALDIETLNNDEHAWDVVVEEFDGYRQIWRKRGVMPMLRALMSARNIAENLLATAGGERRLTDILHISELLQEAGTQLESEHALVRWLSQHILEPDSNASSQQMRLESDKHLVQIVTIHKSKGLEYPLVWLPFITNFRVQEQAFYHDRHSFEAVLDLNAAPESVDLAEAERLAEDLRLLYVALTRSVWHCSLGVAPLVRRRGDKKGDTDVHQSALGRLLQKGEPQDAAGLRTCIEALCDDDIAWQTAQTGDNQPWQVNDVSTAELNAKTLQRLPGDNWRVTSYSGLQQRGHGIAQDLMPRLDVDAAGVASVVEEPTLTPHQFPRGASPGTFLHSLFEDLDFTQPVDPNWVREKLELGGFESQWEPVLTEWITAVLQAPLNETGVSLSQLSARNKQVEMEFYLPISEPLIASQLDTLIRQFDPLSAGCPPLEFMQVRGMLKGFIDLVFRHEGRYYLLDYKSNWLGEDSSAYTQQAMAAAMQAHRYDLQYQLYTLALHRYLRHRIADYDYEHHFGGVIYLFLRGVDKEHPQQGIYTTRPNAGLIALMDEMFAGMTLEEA

A short description of experiment [5]: Trypanosoma cruzi growth suppression in host cells – NIH3T3 host cells, beta-gal luminescence, confirmation (AID 2044).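 Also: intracellular parasites grown in NIH/3T3 mouse fibroblasts as host cells; luminescent beta-galactosidase reporter signal from transgenic T. cruzi replicating inside host cells; inhibitors lower the luminescence signal.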 The experiment is classed as functional, cell-based.
The nature of experiment [6]: general mammalian cell viability loss – inhibitor set, cherry-pick, set 2, cytotoxicity control for miR-122 modulator project, dose response (AID 720697). The experiment is classed as functional, cell-based.
Experiment [7] addresses Phospholipase A2 (Homo sapiens, UniProt P04054). It is filed as functional.
A short description of experiment [8]: fluconazole-exposed Candida albicans growth modulators – fluorescence, retest, confirmation (AID 2467). The experiment is classed as functional, cell-based.
The nature of experiment [9]: cells. The experiment is classed as functional, cell-based.
Experiment [10] is described as follows: alpha-synuclein stem-loop luciferase translation blockers – H4 neuroglioma cells, luminescence, confirmation (AID 1988). It is filed as functional, cell-based.
The target in experiment [11] is Eukaryotic translation initiation factor 4E (Mus musculus, UniProt P63073). Kind of experiment: blockers of eIF4G binding by eIF4E – biochemical, TR-FRET, dose response (AID 855).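 Also: potency for disrupting eIF4E binding to eIF4GI seen as loss of FRET.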 It is filed as functional. A general note: In TR-FRET formats the signal depends on donor and acceptor labels being close together.
Eukaryotic translation initiation factor 4E, sequence (P63073 whole entry): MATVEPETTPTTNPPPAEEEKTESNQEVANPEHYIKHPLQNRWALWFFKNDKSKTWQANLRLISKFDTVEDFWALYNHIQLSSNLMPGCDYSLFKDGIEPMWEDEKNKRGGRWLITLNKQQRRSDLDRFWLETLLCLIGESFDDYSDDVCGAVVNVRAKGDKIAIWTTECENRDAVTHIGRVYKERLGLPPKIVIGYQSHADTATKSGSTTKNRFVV
Experiment [12] concerns the target Cytochrome P450 3A4 (Homo sapiens, UniProt P08684).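 Also: CYP3A4 tested as one member of a cytochrome P450 panel screen.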
Experiment [13] has as its target Troponin, cardiac muscle (Homo sapiens, UniProt P19429+P45379+P63316). Kind of experiment: compounds desensitizing RTF to calcium – biochemical, fluorescence, cardiac regulated thin filaments, triplicate IC50, dose response (AID 504742). It is filed as protein-complex assay.
The target in experiment [14] is Ephrin type-A receptor 4 (Mus musculus, UniProt Q03137). Kind of experiment: EphA4 ligand-binding antagonists – biochemical, colorimetric, mouse EphA4, primary screen (AID 689). The experiment is classed as functional.
Ephrin type-A receptor 4, sequence (Q03137 whole entry): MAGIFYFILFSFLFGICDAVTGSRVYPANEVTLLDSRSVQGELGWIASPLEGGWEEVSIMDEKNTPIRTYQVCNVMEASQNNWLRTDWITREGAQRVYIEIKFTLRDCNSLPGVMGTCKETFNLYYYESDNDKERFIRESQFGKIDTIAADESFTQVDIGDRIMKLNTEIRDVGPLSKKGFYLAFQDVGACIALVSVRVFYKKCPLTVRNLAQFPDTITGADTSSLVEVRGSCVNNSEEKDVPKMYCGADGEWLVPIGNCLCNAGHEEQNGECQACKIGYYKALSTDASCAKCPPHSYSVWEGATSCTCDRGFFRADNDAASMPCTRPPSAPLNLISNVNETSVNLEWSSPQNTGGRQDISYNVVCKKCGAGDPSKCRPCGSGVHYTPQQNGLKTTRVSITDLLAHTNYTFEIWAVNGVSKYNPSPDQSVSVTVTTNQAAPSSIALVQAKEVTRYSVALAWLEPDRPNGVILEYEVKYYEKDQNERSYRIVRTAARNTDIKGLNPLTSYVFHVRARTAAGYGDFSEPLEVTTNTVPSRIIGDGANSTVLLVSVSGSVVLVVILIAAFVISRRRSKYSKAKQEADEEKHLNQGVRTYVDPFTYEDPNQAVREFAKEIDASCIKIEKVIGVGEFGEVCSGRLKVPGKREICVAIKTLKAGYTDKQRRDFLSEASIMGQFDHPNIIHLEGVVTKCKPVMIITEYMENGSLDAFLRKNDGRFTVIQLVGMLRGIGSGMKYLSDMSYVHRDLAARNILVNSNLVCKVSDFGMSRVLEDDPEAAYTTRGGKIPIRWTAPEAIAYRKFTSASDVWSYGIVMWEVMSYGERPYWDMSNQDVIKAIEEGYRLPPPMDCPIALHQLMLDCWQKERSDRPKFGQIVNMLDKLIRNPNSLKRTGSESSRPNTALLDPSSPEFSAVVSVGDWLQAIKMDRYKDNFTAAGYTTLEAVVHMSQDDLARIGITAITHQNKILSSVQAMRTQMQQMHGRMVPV
Experiment [15] addresses Guanyl-specific ribonuclease T1 (Aspergillus oryzae (strain ATCC 42149 / RIB 40), UniProt P00651). The experiment in a line: inhibition of ribonuclease T1 activity – biochemical, fluorescence polarization, 1536-well, counter-screen for TPT1 inhibitor project, dose response (AID 2167). Background: Fluorescence polarisation rises when a labelled molecule tumbles more slowly, as on binding a larger partner.

For experiment [16], the target named is Beta-lactamase (Pseudomonas aeruginosa, UniProt Q79MP6).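 Also: biochemical dose-response test of metallo-beta-lactamase enzyme inhibition, read out by epi-absorbance; purified recombinant IMP-1 metallo-beta-lactamase with nitrocefin as substrate.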
Beta-lactamase, sequence (Q79MP6 whole entry): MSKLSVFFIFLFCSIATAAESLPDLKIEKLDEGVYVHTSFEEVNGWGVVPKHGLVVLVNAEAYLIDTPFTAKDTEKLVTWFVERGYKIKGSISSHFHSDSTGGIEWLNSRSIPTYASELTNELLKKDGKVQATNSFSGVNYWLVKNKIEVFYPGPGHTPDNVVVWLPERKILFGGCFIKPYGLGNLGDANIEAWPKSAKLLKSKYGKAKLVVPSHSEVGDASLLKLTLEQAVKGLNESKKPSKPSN
Experiment [17] has as its target T2, Insulin-degrading enzyme (Homo sapiens, UniProt P14735).
T2 sequence (P14735 whole entry): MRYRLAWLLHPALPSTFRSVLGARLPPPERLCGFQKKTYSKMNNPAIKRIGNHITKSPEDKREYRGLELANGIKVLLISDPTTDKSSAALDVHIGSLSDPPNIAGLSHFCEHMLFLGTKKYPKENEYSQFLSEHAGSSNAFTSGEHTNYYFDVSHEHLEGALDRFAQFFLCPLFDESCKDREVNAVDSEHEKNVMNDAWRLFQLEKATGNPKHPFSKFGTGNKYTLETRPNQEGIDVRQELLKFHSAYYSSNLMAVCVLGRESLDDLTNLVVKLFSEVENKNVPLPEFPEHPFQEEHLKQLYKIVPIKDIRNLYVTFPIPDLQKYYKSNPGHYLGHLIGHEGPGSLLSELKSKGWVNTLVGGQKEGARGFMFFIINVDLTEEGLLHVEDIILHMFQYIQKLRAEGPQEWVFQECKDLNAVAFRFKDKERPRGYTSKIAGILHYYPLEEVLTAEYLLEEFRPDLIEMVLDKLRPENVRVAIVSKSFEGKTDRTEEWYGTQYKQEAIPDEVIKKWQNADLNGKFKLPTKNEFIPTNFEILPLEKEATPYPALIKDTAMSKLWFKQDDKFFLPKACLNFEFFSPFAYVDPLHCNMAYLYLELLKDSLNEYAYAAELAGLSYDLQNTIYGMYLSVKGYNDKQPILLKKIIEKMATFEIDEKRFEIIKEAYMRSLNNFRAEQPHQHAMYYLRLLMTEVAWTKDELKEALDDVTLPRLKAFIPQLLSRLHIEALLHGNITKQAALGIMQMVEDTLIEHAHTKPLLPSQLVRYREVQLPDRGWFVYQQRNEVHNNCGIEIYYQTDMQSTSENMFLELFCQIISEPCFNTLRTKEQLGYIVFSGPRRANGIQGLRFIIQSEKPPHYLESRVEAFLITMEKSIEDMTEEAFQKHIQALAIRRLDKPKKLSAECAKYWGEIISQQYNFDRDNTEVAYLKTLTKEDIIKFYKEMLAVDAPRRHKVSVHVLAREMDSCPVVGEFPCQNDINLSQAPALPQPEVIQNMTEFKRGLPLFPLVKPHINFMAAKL
The experiment in a line: recombinant IDE activation, cell-free – biochemical, fluorescence polarization, counter-screen for IDE activator project, dose response (AID 588681).

In experiment [18] the test system is HeLa. The experiment in a line: viability loss in HeLa cells – cell-based, 24 h, cherry-picked samples, cytotoxicity control, dose response (AID 504726).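 Also: potency for cytotoxicity as loss of luminescence signal.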 It is filed as functional. To be noted: Homo sapiens.

Guanyl-specific ribonuclease T1, sequence (P00651 whole entry): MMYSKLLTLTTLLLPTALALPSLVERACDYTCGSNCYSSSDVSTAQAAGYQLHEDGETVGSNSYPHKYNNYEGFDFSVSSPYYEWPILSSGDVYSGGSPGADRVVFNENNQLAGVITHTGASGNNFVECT
Phospholipase A2, sequence (P04054 whole entry): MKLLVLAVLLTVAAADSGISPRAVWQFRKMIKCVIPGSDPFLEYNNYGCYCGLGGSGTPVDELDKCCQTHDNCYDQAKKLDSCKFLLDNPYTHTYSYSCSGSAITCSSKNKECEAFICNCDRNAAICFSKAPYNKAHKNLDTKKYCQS

A word on the AC50: it is the concentration giving half of the maximal activity seen. For orientation: IC50 means the point on the concentration scale where inhibition reaches its midpoint. The EC50 is the concentration giving half of the maximal effect. For the molecule `Oc1ccc2ccccc2c1/C=N/Nc1nnc(-c2ncc[nH]2)c2ccccc12`, the results for the half-maximal activity concentration (AC50) in [1] and in [6] were 3.53 µM (active) and 2.19 µM (active), respectively. The IC50 in [2] was > 80 µM (inactive); in experiment [4], > 119 µM (inactive); in experiment [7], 1.51 µM (active). The EC50 in experiment [3] was > 180 µM (inactive); in [5], 0.412 µM (active); in experiment [8], 0.714 µM (active); in [9], 82.8 µM (active); in experiment [10] it was 0.224 µM (active).

Regarding `CC(C)C(C(=O)O)N1C(=O)/C(=C/C=C/c2ccco2)SC1=S` (stereo not drawn), the IC50 was 11.3 µM (active) in experiment [11], 22.4 µM (inactive) in experiment [13], 5.26 µM (active) in experiment [14] and 9.85 µM (active) in experiment [15]. In experiment [12], the AC50 is 31.6 µM (inconclusive).

Regarding `O=C1CCN2C=Nc3cccc4ccc1c2c34`, the IC50 in [16] was 11.8 µM (inactive). Moreover, the EC50 in [17] is > 54.7 µM (inactive). Also, the AC50 in experiment [18] is 20.2 µM (active).
